Measured values as given in US20100210649A1, “PYRIDAZINONES AND FURAN-CONTAINING COMPOUNDS” (Sloan-Kettering Institute for Cancer Research, priority 2006, published 2010).

Tests used:
[1] = system: H2030 cells; assay: [3H]-thymidine incorporation assay, H2030; assay type: cell-based, human; conditions: increasing concentrations, 24 hours
Protocol: FIG. 1. SKI-267077 blocks DNA synthesis. H2030 cells were treated with the indicated concentration of SKI-267077 for 24 h and then the incorporation of ^3H-thymidine into DNA was determined
[^3H]-thymidine incorporation assay. Cells were seeded in 12-well plates at a density of 100 000 cells/well and treated with inhibitors for 24 hours. H3-thymidine (3 μCi/mL) was then added for 3 hours. Cells were washed twice with PBS, fixed with cold 10% TCA (in PBS) for 30 min then lysed with 0.5% NaOH/0.5% SDS. DNA was scraped from the wells and the amount of H3-thymidine incorporated determined by liquid scintillation counting.
SKI-267077 inhibits DNA synthesis. […] H2030 cells were treated with increasing concentrations of SKI-267077 for 24 hours and then incorporation of ^3H-thymide into DNA determined (FIG. 1).

[2] = system: caspase 3/7; assay: Caspase 3/7 enzyme activity assay in cell extracts; assay type: cell-based, human; conditions: H2030 cells, 1 μM, 48 h, whole cell extracts
Protocol: FIG. 3. Activation of caspase 3/7 by SKI-267077. H2030 cells were treated with 1 μM SKI-267077 for 48 h and then caspase 3/7 activity measured in whole cell extracts.
Caspase 3/7 enzyme activity assay. Apoptosis was determined by measuring the enzymatic activity of caspase 3/7 in cell homogenates. Cells were plated at a density of 10,000 cells per well in 96-well plates and treated immediately with drugs for 24-72 h. Caspase 3/7 activity will be determined in cell extracts using Z-DEVD-R110 (rhodamine 110 conjugated to the caspase substrate Z-DEVD) as substrate (Promega). The fluorescence of the cleaved substrate was measured using a micro-titer fluorescence plate reader (Ex: 499 nm, Em: 521 nm).
SKI-267077 stimulates the enzymatic activity of caspase 3/7.

[3] = system: cells; assay: Annexin V binding (FACS) apoptosis assay; assay type: cell-based; conditions: 48 hours, FITC-labeled annexin V
Protocol: FIG. 42. SKI-267077 induces apoptosis. Cells were treated for 48 hours with SKI-267077 and then binding of FITC-labeled annexin V to cells determined FACS analysis was used to determine the amount of annexin V-positive cells.

[4] = system: AKT isoforms; assay: Phosphoprotein array, AKT; assay type: cell-based; conditions: cells treated for 24 hours; PI-3kinase signaling pathway
Protocol: (§1) FIG. 43A-43C. A phosphoprotein array was used to determine which signaling pathways were affected by treatment of cells with SKI-267077. […] A phosphoprotein array (R and D Systems) was used to measure the level of phosphorylation of cellular proteins. Protein phosphorylation was determined according to the manufacturer's instructions.

[5] = system: p70 S6 kinase; assay: Phosphoprotein array, p70 S6 kinase; assay type: cell-based; conditions: cells treated for 24 hours; PI-3kinase signaling pathway
Protocol: as §1

phosphorylation of p70 S6 kinase [5]: blocked phosphorylation
Structure (SMILES): O=c1c(Cl)c(Cl)cnn1-c1ccc(Cl)cc1Cl [compound 267077]
incorporation of 3H-thymidine into DNA (DNA synthesis) [1]: dose-dependent decrease in DNA synthesis
activity of caspase 3/7 [2]: increase in the activity of caspase 3/7
apoptosis, binding of annexin-V to the cell surface [3]: induction of apoptosis
phosphorylation of AKT isoforms [4]: blocked phosphorylation of all three AKT isoforms
